Source: patent publication US11629143B2, “HipK4 inhibitors and uses thereof” (Vibliome Therapeutics, LLC, priority 2020, dated 2023)

Assays:
Assay in all cases: Kinase panel (mobility shift)
Type in all cases: biochemical
[1] = target: P38-b (Homo sapiens, UniProt Q15759)
Method in brief: (§1)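 Compound at 5 um + kinase + fluor-labeled substrate, standardized mix; rxn stopped; electrophoretic separation of product/substrate on chip; activity = product vs substrate peak fluorescence. Bins A ≥95%, B 90-94%, C 80-89%.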

[2] = target: TIE2 (Homo sapiens, UniProt Q02763)
TIE2, sequence (Q02763 23-1124, species assumed): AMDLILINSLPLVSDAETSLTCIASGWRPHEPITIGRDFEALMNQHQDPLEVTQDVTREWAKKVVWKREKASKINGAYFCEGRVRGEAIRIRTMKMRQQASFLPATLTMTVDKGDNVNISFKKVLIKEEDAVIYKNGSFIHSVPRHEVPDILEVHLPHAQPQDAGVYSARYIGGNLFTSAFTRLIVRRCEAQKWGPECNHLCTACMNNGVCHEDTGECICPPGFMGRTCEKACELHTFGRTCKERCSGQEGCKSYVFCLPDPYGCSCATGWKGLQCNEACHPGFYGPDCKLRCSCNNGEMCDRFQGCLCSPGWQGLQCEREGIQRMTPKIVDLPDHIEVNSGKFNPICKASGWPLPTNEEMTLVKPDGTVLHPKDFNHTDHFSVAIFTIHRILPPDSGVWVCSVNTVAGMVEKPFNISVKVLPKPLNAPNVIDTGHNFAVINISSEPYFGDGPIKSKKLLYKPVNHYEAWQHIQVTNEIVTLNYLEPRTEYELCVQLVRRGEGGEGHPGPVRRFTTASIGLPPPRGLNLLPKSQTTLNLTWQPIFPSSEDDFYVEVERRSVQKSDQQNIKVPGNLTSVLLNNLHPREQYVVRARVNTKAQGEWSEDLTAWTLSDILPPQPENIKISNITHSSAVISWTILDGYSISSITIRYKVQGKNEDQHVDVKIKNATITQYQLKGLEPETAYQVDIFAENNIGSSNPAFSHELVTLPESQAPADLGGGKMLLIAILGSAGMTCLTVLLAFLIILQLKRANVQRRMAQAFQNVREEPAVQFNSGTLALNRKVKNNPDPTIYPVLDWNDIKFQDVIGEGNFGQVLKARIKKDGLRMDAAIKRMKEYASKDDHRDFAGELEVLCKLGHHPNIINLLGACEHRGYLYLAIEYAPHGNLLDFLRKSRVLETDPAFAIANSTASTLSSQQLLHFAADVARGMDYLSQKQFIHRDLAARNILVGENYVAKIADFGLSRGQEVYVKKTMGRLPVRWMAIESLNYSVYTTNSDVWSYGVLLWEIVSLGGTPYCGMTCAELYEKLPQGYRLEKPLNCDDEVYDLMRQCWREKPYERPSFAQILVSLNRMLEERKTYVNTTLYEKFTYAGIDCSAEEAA
Method in brief: as §1

[3] = target: LOK (Homo sapiens, UniProt O94804); settings: at 5 um
LOK, sequence (O94804 whole entry, species assumed): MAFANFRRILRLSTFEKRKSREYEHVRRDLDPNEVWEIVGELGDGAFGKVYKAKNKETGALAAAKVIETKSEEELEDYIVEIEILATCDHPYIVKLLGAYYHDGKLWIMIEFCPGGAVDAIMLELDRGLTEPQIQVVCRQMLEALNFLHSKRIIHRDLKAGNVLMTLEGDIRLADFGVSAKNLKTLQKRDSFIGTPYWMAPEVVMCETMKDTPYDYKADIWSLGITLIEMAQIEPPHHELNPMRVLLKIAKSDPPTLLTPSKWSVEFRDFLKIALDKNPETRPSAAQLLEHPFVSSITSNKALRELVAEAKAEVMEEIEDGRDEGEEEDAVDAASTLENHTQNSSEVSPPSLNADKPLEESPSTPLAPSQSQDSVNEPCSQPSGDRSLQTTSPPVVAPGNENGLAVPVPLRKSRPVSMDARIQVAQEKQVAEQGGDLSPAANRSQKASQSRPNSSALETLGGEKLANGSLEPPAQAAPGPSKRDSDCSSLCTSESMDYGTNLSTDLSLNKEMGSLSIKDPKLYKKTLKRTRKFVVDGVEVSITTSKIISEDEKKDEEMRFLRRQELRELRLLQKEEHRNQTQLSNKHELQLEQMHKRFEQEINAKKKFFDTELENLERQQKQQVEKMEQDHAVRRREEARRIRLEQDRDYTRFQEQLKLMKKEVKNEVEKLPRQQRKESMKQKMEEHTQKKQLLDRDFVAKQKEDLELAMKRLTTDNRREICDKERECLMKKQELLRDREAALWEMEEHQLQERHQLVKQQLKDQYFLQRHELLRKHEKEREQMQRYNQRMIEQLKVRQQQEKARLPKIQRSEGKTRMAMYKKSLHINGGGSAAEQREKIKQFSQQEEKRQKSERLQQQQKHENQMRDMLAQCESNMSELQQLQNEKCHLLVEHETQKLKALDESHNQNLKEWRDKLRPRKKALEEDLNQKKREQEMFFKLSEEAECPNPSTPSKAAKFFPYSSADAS
Method in brief: as §1

[4] = target: EPH-A5 (Homo sapiens, UniProt P54756); settings: at 5 um
EPH-A5, sequence (P54756 25-1037, species assumed): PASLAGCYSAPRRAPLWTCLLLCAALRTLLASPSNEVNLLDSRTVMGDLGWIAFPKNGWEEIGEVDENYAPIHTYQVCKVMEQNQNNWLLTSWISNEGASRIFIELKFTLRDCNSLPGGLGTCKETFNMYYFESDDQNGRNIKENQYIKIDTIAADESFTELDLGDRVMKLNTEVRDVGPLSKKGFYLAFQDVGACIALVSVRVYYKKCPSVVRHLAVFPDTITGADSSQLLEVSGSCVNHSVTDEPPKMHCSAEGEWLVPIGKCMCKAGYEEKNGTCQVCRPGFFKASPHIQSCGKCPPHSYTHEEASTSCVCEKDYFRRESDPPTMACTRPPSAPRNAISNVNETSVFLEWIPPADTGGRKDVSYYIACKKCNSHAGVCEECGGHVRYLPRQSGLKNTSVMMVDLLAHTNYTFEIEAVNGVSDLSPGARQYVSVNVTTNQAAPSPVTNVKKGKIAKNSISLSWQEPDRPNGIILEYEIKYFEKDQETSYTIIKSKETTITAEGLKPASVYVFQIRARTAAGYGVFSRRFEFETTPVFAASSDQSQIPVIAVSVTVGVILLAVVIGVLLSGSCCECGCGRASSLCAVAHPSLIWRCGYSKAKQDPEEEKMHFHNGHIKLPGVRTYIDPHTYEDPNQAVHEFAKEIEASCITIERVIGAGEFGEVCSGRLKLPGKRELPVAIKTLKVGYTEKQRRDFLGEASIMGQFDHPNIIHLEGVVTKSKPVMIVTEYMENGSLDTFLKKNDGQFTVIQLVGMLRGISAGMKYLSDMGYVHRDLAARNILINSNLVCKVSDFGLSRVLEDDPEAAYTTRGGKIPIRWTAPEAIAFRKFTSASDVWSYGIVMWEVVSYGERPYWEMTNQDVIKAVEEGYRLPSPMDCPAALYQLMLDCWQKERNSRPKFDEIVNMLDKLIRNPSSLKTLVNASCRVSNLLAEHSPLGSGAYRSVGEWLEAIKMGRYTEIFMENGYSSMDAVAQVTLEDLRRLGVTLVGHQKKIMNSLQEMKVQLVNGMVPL
Method in brief: as §1

[5] = target: T1, EPH-B2 (Homo sapiens, UniProt P29323); settings: at 5 um
T1 sequence (P29323 19-1055): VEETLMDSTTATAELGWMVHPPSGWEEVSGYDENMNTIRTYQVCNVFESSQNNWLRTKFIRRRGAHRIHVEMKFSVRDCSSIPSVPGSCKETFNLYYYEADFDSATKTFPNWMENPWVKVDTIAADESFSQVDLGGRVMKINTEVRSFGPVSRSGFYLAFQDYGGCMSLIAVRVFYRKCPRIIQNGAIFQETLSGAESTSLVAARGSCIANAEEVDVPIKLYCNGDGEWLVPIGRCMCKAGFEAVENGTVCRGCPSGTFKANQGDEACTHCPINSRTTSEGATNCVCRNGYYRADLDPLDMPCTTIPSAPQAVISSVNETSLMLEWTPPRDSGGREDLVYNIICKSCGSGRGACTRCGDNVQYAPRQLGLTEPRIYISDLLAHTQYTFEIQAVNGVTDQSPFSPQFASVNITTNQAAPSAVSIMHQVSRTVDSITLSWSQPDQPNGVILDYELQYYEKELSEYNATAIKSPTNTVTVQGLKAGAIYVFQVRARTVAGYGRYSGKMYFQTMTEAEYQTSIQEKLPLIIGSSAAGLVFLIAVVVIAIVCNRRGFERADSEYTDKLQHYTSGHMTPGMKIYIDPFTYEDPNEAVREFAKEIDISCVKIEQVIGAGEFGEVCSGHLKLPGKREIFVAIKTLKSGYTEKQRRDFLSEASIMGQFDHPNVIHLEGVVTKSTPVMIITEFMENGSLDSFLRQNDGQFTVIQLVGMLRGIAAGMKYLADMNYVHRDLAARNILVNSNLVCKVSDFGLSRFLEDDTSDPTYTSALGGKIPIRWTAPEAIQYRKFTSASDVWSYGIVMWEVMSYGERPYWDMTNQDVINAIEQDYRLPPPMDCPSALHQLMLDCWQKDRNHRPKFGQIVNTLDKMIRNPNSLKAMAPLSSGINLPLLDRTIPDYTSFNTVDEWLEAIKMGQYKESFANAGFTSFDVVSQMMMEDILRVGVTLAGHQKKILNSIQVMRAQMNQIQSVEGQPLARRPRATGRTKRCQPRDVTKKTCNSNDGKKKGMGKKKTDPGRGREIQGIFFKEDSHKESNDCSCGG
Method in brief: as §1

[6] = target: T2, HIPK4 (Homo sapiens, UniProt Q8NE63)
T2 sequence (Q8NE63 1-616): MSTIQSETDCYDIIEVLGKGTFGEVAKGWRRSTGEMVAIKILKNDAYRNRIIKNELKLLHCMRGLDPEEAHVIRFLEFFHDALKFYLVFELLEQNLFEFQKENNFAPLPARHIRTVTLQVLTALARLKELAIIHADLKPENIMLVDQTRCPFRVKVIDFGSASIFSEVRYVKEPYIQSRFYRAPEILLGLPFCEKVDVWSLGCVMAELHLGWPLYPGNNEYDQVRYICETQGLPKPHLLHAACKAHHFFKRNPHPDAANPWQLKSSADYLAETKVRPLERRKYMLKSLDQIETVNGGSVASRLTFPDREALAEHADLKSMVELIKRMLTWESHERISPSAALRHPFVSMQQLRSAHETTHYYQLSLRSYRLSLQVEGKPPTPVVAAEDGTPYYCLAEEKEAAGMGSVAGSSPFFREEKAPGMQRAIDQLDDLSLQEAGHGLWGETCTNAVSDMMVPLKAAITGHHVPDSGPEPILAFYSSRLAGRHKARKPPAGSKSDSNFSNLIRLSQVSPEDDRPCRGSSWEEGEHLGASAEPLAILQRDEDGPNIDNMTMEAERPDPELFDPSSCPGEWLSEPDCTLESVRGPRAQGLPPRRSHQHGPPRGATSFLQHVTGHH
Method in brief: as §1

[7] = target: P38-a (Homo sapiens, UniProt Q16539); settings: at 5 um
P38-a, sequence (Q16539 whole entry): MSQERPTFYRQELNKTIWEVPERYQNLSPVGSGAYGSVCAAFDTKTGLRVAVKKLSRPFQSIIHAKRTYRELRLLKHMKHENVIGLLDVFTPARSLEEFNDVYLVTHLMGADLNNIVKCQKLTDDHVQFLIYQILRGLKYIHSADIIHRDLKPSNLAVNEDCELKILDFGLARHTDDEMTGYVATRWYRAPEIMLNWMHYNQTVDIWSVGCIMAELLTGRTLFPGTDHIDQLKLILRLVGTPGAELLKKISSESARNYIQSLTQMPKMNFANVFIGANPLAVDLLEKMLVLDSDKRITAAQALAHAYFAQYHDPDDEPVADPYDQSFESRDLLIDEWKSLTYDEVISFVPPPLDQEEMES
Method in brief: as §1

P38-b, sequence (Q15759 whole entry, species assumed): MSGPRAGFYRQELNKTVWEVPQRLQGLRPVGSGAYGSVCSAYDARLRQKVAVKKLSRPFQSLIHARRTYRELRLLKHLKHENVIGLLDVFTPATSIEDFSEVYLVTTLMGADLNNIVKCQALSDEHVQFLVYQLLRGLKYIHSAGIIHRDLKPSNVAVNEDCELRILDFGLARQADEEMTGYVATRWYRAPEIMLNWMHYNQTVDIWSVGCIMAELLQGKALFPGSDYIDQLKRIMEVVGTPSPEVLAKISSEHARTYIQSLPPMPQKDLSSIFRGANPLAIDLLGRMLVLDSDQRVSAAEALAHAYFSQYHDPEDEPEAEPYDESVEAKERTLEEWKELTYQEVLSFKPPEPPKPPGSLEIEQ

Row | SMILES | inhibition at 5 µM [1] [%] | inhibition at 5 µM [2] [%] | inhibition of kinase activity, LOK [3] | inhibition of kinase activity, EPH-A5 [4] | inhibition of kinase activity, EPH-B2 [5] | inhibition at 5 µM [6] [%] | inhibition of kinase activity, P38-a [7]
1 | CNC(=O)c1cc(Oc2ccc(NC(=O)c3nc(SC)oc3-c3ccc(F)cc3F)cc2)ccn1 [Compound 6] | < 50 | 80 to 89 | E (category E is less than 50%) | E (category E is less than 50%) | E (category E is less than 50%) | 90 to 94 | E (category E is less than 50%)
2 | CNC(=O)c1cc(Oc2ccc(NC(=O)c3nc(SC)oc3-c3ccc(F)cc3Cl)cc2)ccn1 [Compound 3] | < 50 | 50 to 79 | E (category E is less than 50%) | E (category E is less than 50%) | E (category E is less than 50%) | ≥ 95 | E (category E is less than 50%)
3 | CSc1nc(C(=O)Nc2ccc(Oc3ccnc(C(=O)NC4COC4)c3)c(F)c2)c(-c2ccc(F)c(F)c2)o1 [Compound 37] | < 50 | < 50 | E (category E is less than 50%) | E (category E is less than 50%) | E (category E is less than 50%) | ≥ 95 | C (C=80%-89% at 5 um)
4 | CNC(=O)c1cc(Oc2ccc(NC(=O)c3nc(OCC(F)(F)F)oc3-c3ccc(F)cc3)cc2F)ccn1 [Compound 38] | < 50 | 50 to 79 | C (C=80%-89% at 5 um) | E (category E is less than 50%) | E (category E is less than 50%) | ≥ 95 | D (category D for 50-79)
5 | CNC(=O)c1cc(Oc2ccc(NC(=O)c3nc(NC)sc3-c3ccc(F)cc3F)cc2F)ccn1 [Compound 21] | < 50 | 50 to 79 | E (category E is less than 50%) | D (category D for 50-79) | D (category D for 50-79) | ≥ 95 | E (category E is less than 50%)
6 | CNC(=O)c1cc(Oc2ccc(NC(=O)c3nc(SC(C)C)oc3-c3ccc(F)cc3)cc2F)ccn1 [Compound 34] | 50 to 79 | 80 to 89 | A (A=95% or greater at 5 um) | C (C=80%-89% at 5 um) | C (C=80%-89% at 5 um) | ≥ 95 | C (C=80%-89% at 5 um)
7 | CNC(=O)c1cc(Oc2ccc(NC(=O)c3nc(SC)oc3-c3ccc(Cl)s3)cc2)ccn1 [Compound 5] | < 50 | < 50 | E (category E is less than 50%) | E (category E is less than 50%) | E (category E is less than 50%) | 90 to 94 | E (category E is less than 50%)
8 | CNC(=O)c1cc(Oc2ccc(NC(=O)c3nc(COC)oc3-c3ccc(F)cc3)cc2F)ccn1 [Compound 30] | 50 to 79 | 80 to 89 | A (A=95% or greater at 5 um) | C (C=80%-89% at 5 um) | B (B=90%-94% at 5 um) | ≥ 95 | C (C=80%-89% at 5 um)
9 | CSc1nc(C(=O)Nc2ccc(Oc3ccnc(N)c3Cl)c(F)c2)c(-c2ccc(F)cc2)o1 [Compound 1] | < 50 | < 50 | E (category E is less than 50%) | E (category E is less than 50%) | E (category E is less than 50%) | 90 to 94 | D (category D for 50-79)
10 | CSc1nc(C(=O)Nc2ccc(Oc3ccnc(-c4cnn(C)c4)c3)c(F)c2)c(-c2ccc(F)cc2)o1 [Compound 11] | 80 to 89 | 80 to 89 | B (B=90%-94% at 5 um) | C (C=80%-89% at 5 um) | B (B=90%-94% at 5 um) | ≥ 95 | B (B=90%-94% at 5 um)
11 | CSc1nc(C(=O)Nc2ccc(Oc3ccnc(C(=O)NC4COC4)c3)c(F)c2)c(-c2ccc(F)s2)o1 [Compound 28] | < 50 | < 50 | E (category E is less than 50%) | E (category E is less than 50%) | E (category E is less than 50%) | ≥ 95 | E (category E is less than 50%)
12 | CNC(=O)c1cc(Oc2ccc(NC(=O)c3nc(NC)sc3-c3ccc(F)cc3C)cc2F)ccn1 [Compound 23] | < 50 | 50 to 79 | D (category D for 50-79) | D (category D for 50-79) | D (category D for 50-79) | 90 to 94 | D (category D for 50-79)
13 | COc1nc(C(=O)Nc2ccc(Oc3ccnc(C(=O)NC4COC4)c3)c(F)c2)c(-c2ccc(F)cc2)o1 [Compound 39] | < 50 | < 50 | E (category E is less than 50%) | E (category E is less than 50%) | E (category E is less than 50%) | ≥ 95 | D (category D for 50-79)
14 | CSc1nc(C(=O)Nc2ccc(Oc3ccnc(C(=O)NC4COC4)c3)c(F)c2)c(-c2ccc(F)cc2)o1 [Compound 31] | < 50 | < 50 | D (category D for 50-79) | E (category E is less than 50%) | D (category D for 50-79) | ≥ 95 | C (C=80%-89% at 5 um)
15 | CNC(=O)c1cc(Oc2ccc(NC(=O)c3nc(OC)oc3-c3ccc(F)cc3)cc2F)ccn1 [Compound 15] | < 50 | < 50 | C (C=80%-89% at 5 um) | D (category D for 50-79) | D (category D for 50-79) | ≥ 95 | D (category D for 50-79)
